Experimental findings from ChEMBL document CHEMBL5715956, “Selective Targeting of Bromodomains of the Bromodomain-PHD Fingers Family Impairs Osteoclast Differentiation” (ACS Chem Biol, 2017) are described below.

Structures are written as SMILES.

Test [1] addresses Beta-2 adrenergic receptor (Homo sapiens) (UniProt P07550). Kind of test: Binding affinity to Beta2 (unknown origin) assessed as specific binding at 10 uM relative to control.
Test [2] concerns the target Bromodomain testis-specific protein (Homo sapiens) (UniProt Q58F21). The following applies: dose 10.0 µM.
In test [3] the target is Transcription initiation factor TFIID subunit 1-like (Homo sapiens) (UniProt Q8IZX4). The settings on record: dose 10.0 µM.
Chain of Transcription initiation factor TFIID subunit 1-like (Homo sapiens) (Q8IZX4 whole entry, the tested form may be a part): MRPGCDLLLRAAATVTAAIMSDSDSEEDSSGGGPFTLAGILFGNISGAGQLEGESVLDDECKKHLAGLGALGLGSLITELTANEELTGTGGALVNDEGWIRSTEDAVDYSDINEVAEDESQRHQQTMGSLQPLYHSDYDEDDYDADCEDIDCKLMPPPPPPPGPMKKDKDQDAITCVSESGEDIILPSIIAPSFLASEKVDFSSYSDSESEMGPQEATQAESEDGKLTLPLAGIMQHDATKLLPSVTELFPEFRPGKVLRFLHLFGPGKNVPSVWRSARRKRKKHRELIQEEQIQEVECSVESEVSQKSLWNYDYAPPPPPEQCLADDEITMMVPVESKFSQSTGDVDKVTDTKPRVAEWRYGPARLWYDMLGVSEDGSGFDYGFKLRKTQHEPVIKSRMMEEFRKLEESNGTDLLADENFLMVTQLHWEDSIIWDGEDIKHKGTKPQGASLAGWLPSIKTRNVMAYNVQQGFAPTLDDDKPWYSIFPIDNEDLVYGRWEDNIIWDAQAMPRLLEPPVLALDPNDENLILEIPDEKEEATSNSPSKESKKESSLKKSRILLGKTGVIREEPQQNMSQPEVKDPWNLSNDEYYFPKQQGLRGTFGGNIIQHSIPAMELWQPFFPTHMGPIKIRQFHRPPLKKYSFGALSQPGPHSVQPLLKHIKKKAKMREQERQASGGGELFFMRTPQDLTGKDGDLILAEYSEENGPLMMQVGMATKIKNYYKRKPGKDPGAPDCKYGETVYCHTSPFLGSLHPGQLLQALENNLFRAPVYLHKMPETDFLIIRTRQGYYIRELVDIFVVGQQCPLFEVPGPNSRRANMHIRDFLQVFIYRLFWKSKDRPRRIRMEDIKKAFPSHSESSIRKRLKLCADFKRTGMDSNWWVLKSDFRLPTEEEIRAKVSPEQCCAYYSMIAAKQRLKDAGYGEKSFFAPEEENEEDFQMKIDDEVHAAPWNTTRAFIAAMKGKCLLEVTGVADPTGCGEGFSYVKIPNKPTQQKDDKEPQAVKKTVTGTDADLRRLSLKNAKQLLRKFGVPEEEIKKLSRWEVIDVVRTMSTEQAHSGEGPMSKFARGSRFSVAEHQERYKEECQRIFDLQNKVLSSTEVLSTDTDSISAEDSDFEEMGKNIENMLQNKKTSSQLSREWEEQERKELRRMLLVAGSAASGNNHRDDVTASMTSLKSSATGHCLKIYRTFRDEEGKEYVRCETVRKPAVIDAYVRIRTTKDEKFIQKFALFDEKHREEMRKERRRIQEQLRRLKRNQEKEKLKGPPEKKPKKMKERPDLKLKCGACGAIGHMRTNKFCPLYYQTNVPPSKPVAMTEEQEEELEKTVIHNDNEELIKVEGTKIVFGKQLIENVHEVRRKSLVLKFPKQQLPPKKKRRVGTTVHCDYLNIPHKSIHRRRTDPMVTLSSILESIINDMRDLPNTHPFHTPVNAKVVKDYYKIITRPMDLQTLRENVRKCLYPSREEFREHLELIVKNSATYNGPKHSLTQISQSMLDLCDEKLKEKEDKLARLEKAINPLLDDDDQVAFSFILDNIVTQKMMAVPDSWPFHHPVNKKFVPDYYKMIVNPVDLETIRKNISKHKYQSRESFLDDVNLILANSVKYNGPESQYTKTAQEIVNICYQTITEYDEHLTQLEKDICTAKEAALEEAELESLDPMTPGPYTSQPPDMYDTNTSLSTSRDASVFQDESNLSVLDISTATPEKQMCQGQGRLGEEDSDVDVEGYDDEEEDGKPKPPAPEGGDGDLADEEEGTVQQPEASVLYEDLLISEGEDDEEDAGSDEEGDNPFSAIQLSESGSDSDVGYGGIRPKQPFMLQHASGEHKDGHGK
Test [4] concerns the target ATPase family AAA domain-containing protein 2 (Homo sapiens) (UniProt Q6PL18). The following applies: dose 10.0 µM.
The target in test [5] is Bromodomain-containing protein 7 (Homo sapiens) (UniProt Q9NPI1). The following applies: dose 10.0 µM.
The target of test [6] is Protein polybromo-1 (Homo sapiens) (UniProt Q86U86). The settings on record: dose 10.0 µM.
Chain of Protein polybromo-1 (Homo sapiens) (Q86U86 whole entry): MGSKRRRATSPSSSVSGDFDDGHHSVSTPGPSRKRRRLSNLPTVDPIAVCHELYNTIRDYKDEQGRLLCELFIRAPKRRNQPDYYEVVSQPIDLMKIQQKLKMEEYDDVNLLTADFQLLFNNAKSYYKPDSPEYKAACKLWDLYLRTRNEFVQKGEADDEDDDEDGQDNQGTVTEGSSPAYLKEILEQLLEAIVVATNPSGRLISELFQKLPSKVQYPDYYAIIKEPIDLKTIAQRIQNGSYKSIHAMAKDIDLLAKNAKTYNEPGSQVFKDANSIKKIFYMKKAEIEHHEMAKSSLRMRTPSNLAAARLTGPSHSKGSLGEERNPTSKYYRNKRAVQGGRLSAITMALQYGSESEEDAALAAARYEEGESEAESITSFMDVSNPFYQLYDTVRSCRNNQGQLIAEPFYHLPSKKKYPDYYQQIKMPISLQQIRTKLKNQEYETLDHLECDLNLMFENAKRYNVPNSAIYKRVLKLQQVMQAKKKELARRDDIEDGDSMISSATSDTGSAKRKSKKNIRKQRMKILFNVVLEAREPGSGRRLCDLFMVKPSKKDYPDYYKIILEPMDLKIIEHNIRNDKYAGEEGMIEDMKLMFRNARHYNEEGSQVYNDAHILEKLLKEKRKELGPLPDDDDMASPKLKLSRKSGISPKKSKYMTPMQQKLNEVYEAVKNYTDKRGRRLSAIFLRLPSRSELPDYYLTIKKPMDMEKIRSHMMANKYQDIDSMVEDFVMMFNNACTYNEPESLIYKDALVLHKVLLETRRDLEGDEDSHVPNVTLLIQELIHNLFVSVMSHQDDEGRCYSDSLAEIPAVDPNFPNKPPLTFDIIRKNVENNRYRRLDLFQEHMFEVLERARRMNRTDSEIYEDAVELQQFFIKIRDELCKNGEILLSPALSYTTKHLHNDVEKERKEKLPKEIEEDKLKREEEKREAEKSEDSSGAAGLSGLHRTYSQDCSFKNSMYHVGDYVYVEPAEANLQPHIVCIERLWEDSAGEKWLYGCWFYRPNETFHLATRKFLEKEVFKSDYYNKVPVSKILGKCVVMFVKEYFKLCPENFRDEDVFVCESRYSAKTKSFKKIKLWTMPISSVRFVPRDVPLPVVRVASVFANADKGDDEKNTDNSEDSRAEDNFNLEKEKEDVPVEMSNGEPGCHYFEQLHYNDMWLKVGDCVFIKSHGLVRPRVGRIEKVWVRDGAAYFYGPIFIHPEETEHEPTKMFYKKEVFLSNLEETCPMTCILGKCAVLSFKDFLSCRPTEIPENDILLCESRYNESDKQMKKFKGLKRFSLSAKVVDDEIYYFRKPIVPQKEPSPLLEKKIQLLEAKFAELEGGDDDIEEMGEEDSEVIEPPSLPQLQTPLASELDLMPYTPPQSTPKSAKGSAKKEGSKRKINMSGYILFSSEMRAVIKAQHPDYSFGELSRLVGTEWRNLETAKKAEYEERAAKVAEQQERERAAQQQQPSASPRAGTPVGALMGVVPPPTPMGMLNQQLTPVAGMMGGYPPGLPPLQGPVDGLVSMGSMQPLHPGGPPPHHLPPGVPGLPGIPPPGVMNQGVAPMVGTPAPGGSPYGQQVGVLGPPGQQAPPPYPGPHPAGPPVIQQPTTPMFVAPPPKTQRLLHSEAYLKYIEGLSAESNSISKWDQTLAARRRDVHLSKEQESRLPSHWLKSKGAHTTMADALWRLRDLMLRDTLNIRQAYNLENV
Test [7] deals with Beta-1 adrenergic receptor (Homo sapiens) (UniProt P08588). Kind of test: Binding affinity to Beta1 (unknown origin) assessed as specific binding at 10 uM relative to control.
Chain of Beta-1 adrenergic receptor (Homo sapiens) (P08588 whole entry, looked up): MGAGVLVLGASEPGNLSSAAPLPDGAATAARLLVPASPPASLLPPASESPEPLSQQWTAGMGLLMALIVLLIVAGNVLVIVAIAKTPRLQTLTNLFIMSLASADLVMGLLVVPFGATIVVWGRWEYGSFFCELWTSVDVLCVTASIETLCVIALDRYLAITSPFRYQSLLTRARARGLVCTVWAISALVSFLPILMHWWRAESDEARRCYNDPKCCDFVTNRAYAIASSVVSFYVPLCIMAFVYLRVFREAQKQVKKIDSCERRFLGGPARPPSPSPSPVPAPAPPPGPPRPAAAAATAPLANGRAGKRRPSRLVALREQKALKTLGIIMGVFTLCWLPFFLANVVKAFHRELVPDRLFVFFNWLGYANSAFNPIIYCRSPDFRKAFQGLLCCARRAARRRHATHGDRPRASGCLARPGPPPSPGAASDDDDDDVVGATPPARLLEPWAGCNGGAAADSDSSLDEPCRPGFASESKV
Test [8] concerns the target Protein polybromo-1 (Homo sapiens) (UniProt Q86U86). The following applies: dose 10.0 µM. This is another data set of the same source.
For test [9], the target named is Bromodomain-containing protein 4 (Homo sapiens) (UniProt O60885). The settings on record: dose 10.0 µM.
Test [10] deals with Bromodomain-containing protein 3 (Homo sapiens) (UniProt Q15059). The settings on record: dose 10.0 µM.
Chain of Bromodomain-containing protein 3 (Homo sapiens) (Q15059 2-726 limits assumed): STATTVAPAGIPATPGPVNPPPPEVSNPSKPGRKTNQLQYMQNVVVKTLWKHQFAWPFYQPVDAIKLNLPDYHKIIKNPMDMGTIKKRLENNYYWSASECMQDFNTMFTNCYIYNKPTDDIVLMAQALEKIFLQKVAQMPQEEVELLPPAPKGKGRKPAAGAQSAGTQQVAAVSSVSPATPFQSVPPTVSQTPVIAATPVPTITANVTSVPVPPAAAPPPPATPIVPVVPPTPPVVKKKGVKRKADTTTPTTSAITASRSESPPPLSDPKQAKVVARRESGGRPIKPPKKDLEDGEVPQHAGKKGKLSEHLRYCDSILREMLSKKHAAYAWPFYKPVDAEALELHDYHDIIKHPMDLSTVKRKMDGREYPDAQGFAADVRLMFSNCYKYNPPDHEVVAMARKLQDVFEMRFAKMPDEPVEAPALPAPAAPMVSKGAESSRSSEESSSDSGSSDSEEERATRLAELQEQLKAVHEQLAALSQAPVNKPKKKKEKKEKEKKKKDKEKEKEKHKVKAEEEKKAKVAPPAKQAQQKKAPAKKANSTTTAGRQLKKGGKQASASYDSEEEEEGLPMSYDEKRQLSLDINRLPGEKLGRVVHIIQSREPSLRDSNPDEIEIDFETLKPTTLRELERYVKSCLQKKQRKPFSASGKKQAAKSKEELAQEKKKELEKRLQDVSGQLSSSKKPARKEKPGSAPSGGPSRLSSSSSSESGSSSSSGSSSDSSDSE
Test [11] deals with T1, Bromodomain-containing protein 1 (Homo sapiens) (UniProt O95696).
T1 sequence (whole entry): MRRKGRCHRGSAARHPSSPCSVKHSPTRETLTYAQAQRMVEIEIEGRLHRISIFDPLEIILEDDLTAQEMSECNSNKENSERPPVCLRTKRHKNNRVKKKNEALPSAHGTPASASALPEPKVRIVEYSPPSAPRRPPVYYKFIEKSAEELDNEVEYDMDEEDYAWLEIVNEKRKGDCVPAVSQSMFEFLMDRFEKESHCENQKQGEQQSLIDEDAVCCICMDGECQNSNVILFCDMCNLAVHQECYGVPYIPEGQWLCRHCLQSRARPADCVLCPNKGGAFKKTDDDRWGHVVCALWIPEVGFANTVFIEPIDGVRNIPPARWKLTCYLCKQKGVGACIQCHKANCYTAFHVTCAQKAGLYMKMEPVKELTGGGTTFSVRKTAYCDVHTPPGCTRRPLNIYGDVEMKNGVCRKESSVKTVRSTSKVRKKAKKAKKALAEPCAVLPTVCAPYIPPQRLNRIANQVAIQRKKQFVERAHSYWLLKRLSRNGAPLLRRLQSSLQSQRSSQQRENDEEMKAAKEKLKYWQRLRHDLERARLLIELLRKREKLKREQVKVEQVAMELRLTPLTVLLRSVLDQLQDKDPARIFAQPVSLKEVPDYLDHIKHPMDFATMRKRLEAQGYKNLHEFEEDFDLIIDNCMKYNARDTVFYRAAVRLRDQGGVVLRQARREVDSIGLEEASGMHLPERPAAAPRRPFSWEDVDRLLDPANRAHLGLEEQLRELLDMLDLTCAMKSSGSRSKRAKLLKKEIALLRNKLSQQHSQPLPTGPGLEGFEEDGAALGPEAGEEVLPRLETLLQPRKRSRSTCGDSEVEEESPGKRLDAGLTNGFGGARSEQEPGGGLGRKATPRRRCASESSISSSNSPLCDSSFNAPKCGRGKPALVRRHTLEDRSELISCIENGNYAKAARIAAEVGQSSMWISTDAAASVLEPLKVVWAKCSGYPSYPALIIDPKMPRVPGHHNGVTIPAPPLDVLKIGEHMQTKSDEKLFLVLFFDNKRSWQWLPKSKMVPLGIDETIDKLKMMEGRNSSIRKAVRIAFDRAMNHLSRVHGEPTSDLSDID
Kind of test: Binding affinity to BRPF2 (unknown origin) assessed as association constant at 12 uM by Isothermal titration calorimetry. A general note: Isothermal titration calorimetry measures the heat released or taken up as one component is titrated into another.

In test [12] the target is T2, Bromodomain and PHD finger-containing protein 3 (Homo sapiens) (UniProt Q9ULD4).
T2 sequence (whole entry): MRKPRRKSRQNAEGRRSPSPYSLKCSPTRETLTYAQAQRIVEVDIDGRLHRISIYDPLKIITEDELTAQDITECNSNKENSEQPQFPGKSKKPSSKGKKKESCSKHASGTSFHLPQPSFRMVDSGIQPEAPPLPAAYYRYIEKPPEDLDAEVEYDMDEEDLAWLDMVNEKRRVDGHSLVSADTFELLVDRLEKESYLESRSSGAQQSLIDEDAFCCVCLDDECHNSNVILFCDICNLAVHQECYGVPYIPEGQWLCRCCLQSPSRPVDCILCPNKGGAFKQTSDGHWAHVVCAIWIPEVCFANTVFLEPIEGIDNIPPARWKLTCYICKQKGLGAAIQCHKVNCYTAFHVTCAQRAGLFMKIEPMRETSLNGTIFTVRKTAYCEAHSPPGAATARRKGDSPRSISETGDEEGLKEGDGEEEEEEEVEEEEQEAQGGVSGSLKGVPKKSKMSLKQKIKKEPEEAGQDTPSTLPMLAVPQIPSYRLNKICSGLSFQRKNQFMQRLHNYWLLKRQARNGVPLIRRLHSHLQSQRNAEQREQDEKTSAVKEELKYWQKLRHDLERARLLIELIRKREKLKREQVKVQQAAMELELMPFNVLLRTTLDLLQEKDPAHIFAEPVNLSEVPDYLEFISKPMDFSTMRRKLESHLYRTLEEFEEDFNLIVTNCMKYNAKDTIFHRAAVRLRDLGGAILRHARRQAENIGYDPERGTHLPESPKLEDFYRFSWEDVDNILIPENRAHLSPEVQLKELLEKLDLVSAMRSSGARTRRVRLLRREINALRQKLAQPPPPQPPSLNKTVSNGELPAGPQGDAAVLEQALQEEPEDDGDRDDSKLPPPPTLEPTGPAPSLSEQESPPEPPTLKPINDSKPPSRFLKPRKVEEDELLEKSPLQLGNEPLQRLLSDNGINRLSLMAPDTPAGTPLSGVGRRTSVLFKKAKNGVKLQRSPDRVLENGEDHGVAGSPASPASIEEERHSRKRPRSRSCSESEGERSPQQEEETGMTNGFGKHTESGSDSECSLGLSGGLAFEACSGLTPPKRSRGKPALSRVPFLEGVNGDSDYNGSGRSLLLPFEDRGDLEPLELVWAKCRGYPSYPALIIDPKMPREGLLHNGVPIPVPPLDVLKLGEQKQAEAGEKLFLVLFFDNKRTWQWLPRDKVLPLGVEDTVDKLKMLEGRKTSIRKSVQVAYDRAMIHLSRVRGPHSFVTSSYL
Kind of test: Binding affinity to BRPF3 (unknown origin) assessed as change in entropy TdeltaS at 12 uM by Isothermal titration calorimetry.

Test [13] has as its target Bromodomain-containing protein 4 (Homo sapiens) (UniProt O60885). The following applies: dose 10.0 µM. The source holds these as a separate data set.

Chain of Beta-2 adrenergic receptor (Homo sapiens) (P07550 whole entry, looked up): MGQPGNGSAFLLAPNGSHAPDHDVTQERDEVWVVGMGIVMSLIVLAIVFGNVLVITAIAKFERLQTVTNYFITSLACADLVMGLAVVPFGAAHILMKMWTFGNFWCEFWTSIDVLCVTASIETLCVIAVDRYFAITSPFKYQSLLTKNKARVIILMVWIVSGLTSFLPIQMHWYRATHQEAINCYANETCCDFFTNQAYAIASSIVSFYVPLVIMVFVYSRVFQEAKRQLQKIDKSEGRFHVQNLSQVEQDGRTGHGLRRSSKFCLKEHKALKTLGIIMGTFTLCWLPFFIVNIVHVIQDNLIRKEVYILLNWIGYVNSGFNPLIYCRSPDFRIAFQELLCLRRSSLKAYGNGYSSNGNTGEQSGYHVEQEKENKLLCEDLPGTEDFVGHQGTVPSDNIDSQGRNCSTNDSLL

Consider `COc1cc2c(cc1NS(=O)(=O)c1ccc(Br)cc1C)n(C)c(=O)n2C`, for which the Activity in [1] was 93.6%; in [7] it was 92.6%. Moreover, the ΔTm – broadly, the shift of the melting midpoint relative to a reference – in test [2] came to 0.8 °C; in [3], 0.3 °C; in test [4], 0.14 °C; in test [5], 1.2 °C; in [6] it was 0.2 °C; in test [8], 0.8 °C. In addition, the ΔTm worked out at 2 °C in test [9], 1.6 °C in test [10] and 0.6 °C in test [13]. Besides, the Ka in [11] is 1.98 10^6 M^-1. Further, the TdeltaS in [12] turned out to be 0.427 kcal/mol.
